Entries after “also recorded” stand apart in the source; their conditions may differ.
Key:
[1] = system: Cuprizone-Induced Demyelination in Mice; test: Cuprizone-induced demyelination in mice, brain histology / immunohistochemistry (169 mg/kg); format: in vivo, Mice (C57BL/6J); conditions: 169 mg/kg p.o. qd, 2 weeks after 5 weeks 0.2% cuprizone
Source text: Studies described below were approved by the Swiss Cantonal Veterinary Authority of Basel City, Switzerland, under the license number 2711. Mice (C57BL/6J) were commercially purchased from Charles River Laboratories, Germany or obtained from Novartis Pharma AG breeding colonies (8-9 weeks old, females). All the animals were allowed to adapt for 7 days prior the start of the experiment and housed in IVC racks (max. 4 mice/XJ Type cage). The animals were given access to food and water ad libitum. Animals were treated with cuprizone for 5 weeks. Cuprizone (Bis(cyclohexanone)oxaldihydrazone, Sigma-Aldrich) was mixed into rodent food pellets (0.2% w/w) by Provimi Kliba AG, Switzerland. Therapeutic treatment of animals after cuprizone was performed for 2 weeks on normal food with 169 mg/kg of BLZ945, qd, p.o. 10 ml/kg. BLZ945 was prepared in vehicle consisting of 0.5% methylcellulose in water and 0.1% Tween-80. Before killing 3 h after last BLZ945 dosing animals were perfused transcardially by phosphate-buffered saline (PBS), brains isolated and fixed in 4% paraformaldehyde (PFA) for 48 h at 4° C. After fixation brains were processed for paraffin embedding by dehydration through increasing ethanol series. Automated immunohistochemistry of paraffin sections was performed on 3 μm paraffin sections mounted on SuperFrost+ slides and automatically immunostained using the Discovery XT technology (Ventana/Roche Diagnostics). Briefly, sections were deparaffinized, rehydrated, subjected to antigen retrieval by heating with CC1 cell conditioning buffer, incubated for 1-3 hours at room temperature with primary antibody diluted in antibody diluent, incubated with the respective biotinylated secondary antibody diluted in antibody dilution, reacted with DABMab kit and counterstained with Hematoxylin II and Bluing Agent reagent (Ventana/Roche Diagnostics). Slides were washed with soap in hot tap water and rinsed under cold running tap water to remove the soap, then dehydrated and embedded with Pertex. Manual immunofluorescence staining of paraffin sections was performed on 3 μm paraffin sections. They were de-waxed and subjected to antigen retrieval (exception: GST-π) by microwaving for 15-20 minutes at 98° C. in 0.1 M citrate buffer pH 6.0 (quartett 400300692), the jar with slides were cooled to room temperature for 20-25 min and rinsed in 1×TBS (cell signaling 12498S) twice for 3 min. Endogenous peroxidase was quenched with Perox Block (Dako S2023) for 10 min, sections then washed with 1×TBS twice for 3 min and blocking with 10% normal goat serum (Dako X0907) in 1×TBS for 20 min performed. Sections were then incubated without rinsing with primary antibody for 60 min (MBP) or overnight (GST-pi, MOG) at room temperature. Sections were then washed in 1×TBS twice for 3 min and then incubated with secondary antibody for 30 min at room temperature. Sections were then washed with 1×TBS twice for 3 min and incubated with Vectastain ABC Elite Kit (Vector PK6100) for 30 min at room temperature, washed with 1×TBS twice for 3 min, incubated with DAB solution (Dako K3468) for 1-5 min. Sections were finally washed with distilled water twice for 2 min, counterstained with Hematoxylin (Dako S2020) for 3 min, again washed with running tap water for 5 min, dehydrated and embedded in Pertex. […]

[2] = Quantitative determination of BLZ945 in blood and brain (LC-MS-MS); format: in vivo; conditions: mice, p.o., FIG. 11
Method: Sample preparation and analysis was based on a modified protein precipitation procedure followed by liquid chromatographic separation coupled with mass spectrometry for detection. Cerebella were homogenized in a gentleMACS™ Dissociator (Milteniy Biotec, #130-093-235) by adding 20% CH3OH to a final concentration of 0.20 g/mL. Blood-EDTA samples were directly used for further preparation. Calibration, quality control, and recovery control samples were prepared by spiking blank blood and blank brain homogenate with known quantities of BLZ945 (between 0.02 and 62.5 μg/mL). For analyte determination, Labetalol hydrochloride (Sigma-Aldrich, # L1011) was used as generic internal standard (IS). […]
LC-MS-MS analysis: For quantitative analysis, a 1.5 μl aliquot of each sample, including calibration, quality control, and recovery control samples were injected with a cooled Waters™ Acquity Urbinary sample manager and HPLC system. […] Quantification was based on the compound/IS ratio of the extracted ion chromatograms of the selected mass transitions 399 m/z→242 m/z for BLZ945 and 329 m/z→162 m/z for Labetalol (IS). The unknown sample concentration was calculated using external calibration curves. The Lower Limit Of Quantification (LLOQ) of the method was set to 20 ng/mL for blood, and 100 ng/mL for brain samples, and the recovery from the matrix was 95±2%. […]

[3] = compared to control (normal food)

Kp at 3 h ([2]; C57BL/6J, mouse, brain (cerebellum homogenate) / whole blood (EDTA), po, read-out: brain/blood ratio): 0.3 to 0.6
Blood and brain BLZ945 levels [2]: dose-dependent
Compound: CNC(=O)c1cc(Oc2ccc3nc(N[C@@H]4CCCC[C@H]4O)sc3c2)ccn1 [BLZ945, 4-(2-((1R,2R)-2-hydroxycyclohexylamino)benzothiazol-6-yloxy)-N-methylpicolinamide]
Iba1+ microglia number compared to control, cortex [1, 3]: lower number of Iba1+ microglia
Iba1+ microglia number compared to control, striatum [1, 3]: lower number of Iba1+ microglia
GFAP-positive astrocytes (stained area), all brain areas ([1]; compared to vehicle): enhances astrocytes; also recorded: even further increases astrocyte numbers; also recorded: substantially higher in cortex and striatum than it is in the corpus callosum
Iba1-positive microglia numbers, all brain areas analyzed (cortex, striatum, corpus callosum) ([1]; compared to vehicle treated animals): reduces microglia numbers; also recorded: significantly reducing this increase compared to vehicle treated animals
GST-π positive mature oligodendrocytes (number of positive cells), cortex ([1]; immunohistochemistry): increases oligodendrocyte numbers; also recorded: did not reach control levels; also recorded: significantly increased after BLZ945 treatment compared to vehicle control
GST-π positive mature oligodendrocytes (number of positive cells), striatum ([1]; immunohistochemistry): increases oligodendrocyte numbers; also recorded: significantly increased after BLZ945 treatment compared to vehicle control; also recorded: did not reach control levels
Myelin basic protein (MBP) stained area, cortex ([1]; immunohistochemistry): enhances remyelination; also recorded: did not reach control levels; also recorded: significantly increased after BLZ945 treatment compared to vehicle control
Myelin basic protein (MBP) stained area, striatum ([1]; immunohistochemistry): enhances remyelination; also recorded: did not reach control levels; also recorded: significantly increased after BLZ945 treatment compared to vehicle control
GST-π positive oligodendrocytes, corpus callosum ([1]; vs cuprizone vehicle): not corpus callosum; also recorded: no difference
Luxol fast blue (LFB) optical density, corpus callosum ([1]; vs cuprizone vehicle): no difference
Myelin oligodendrocyte glycoprotein (MOG) optical density, corpus callosum ([1]; vs cuprizone vehicle): not corpus callosum; also recorded: no difference

Source: patent publication US20200093801A1, “NEW METHODS FOR THE TREATMENT OF MULTIPLE SCLEROSIS” (Novartis AG, priority 2017, published 2020)
